Among the data in article PMC9721426, “Novel piperine-carboximidamide hybrids: design, synthesis, and antiproliferative activity via a multi-targeted inhibitory pathway” (Journal of Enzyme Inhibition and Medicinal Chemistry, 2022) are melting point and IC50 values, retold here.

Structures are written as SMILES.

One data set concerns the target T1, EGFR (Homo sapiens, UniProt P00533).
T1 construct: cytoplasmic domain (EGFR -CD, amino acids 645–1186); His6 (N); made in house; host or cells: Sf-9 insect cells (baculovirus, pBlueBacHis2B / pFASTBacHTc)
Nature of the data set: EGFR-TK inhibitory assay. Type of data set: biochemical. Conditions: EGFR-TK assay; read-out: EGFR inhibition IC50 ± SEM. How it is done:
4.2.1.3. EGFR inhibitory assay
EGFR-TK assay was performed to evaluate the inhibitory potency of the tested compounds against EGFR30. Baculoviral expression vectors including pBlueBacHis2B […]
sequence comprised a sequence that encoded (His) 6. Sf-9 cells were infected for 72h for protein expression. The pellets of Sf-9 cells were solubilized in a buffer containing sodium vanadate (100 µM), aprotinin (10 µg/mL), triton (1%), HEPES buffer (50mM), ammonium molybdate (10 µM), benzamidine HCl (16 µg/mL), NaCl (10 mM), leupeptin (10 µg/mL) and pepstatin (10 µg/mL) at 0°C for 20 min at pH 7.4, followed by centrifugation for 20 min. To eliminate the non-specifically bound material, a Ni-NTA super flow packed column was used to pass through and wash the crude extract supernatant first with 10 mM and then with 100 mM imidazole. […]
NaCl (50 mM), HEPES (20 mM), glycerol (10%) and 1 µg/mL each of aprotinin, leupeptin and pepstatin for 120 min. The purification was performed either at 4 °C or on ice. To record autophosphorylation level, EGFR kinase assay was carried out on the basis of DELFIA/Time-Resolved Fluorometry. The compounds were first dissolved in DMSO […]
pH 7.4. Each compound (10 µL) was incubated with recombinant enzyme (10 µL, 5 ng for EGFR, 1:80 dilution in 100 mM HEPES) for 10 min at 25 °C, subsequent to the addition of 5X buffer (10 µL, containing 2 mM MnCl2, 100 µM Na3VO4, 20 mM HEPES and 1 mM DTT) and ATP-MgCl2 (20 µL, containing 0.1 mM ATP and 50 mM MgCl 2) and incubation for 1h. The negative and positive controls were included in each plate by the incuba tion of enzyme either with or without ATP -MgCl2. The liquid was removed after incubation and the plates were washed thrice using wash buffer. Europium -tagged antiphosphotyrosine antibody (75 µL, 400 ng) was added to each well followed by incubation of 1h a nd then washing of the plates using buffer. The enhancement solution was added to each well and the signal was recorded at excitation and emission […]
The autophosphorylation percentage inhibition by compounds was calculated using the following equation: […]
Using the curves of percentage inhibition of eight concentrations of each compound, IC 50

T1 sequence (P00533 669-1210): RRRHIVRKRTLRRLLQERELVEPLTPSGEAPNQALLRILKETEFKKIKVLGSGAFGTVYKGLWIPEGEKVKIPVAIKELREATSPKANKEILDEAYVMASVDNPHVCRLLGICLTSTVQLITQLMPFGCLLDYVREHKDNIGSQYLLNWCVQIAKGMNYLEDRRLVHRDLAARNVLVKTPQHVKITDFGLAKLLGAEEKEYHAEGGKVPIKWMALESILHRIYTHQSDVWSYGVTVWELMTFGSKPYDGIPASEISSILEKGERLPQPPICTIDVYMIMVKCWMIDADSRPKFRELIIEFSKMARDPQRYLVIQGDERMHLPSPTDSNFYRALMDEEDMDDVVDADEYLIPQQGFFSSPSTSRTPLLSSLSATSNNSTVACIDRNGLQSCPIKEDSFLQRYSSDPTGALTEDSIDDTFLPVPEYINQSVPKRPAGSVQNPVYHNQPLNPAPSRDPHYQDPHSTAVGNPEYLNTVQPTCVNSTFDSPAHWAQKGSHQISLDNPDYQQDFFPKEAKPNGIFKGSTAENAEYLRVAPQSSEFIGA

Molecule `NC(=NOC(=O)/C=C/C=C/c1ccc2c(c1)OCO2)c1ccccc1Cl` [VIf, N'-{[(2E,4E)-5-(2H-1,3-benzodioxol-5-yl)penta-2,4-dienoyl]oxy}-2-chlorobenzene-1-carboximidamide] registered a melting point of 165 to 167 °C. Also, the IC50 at EGFR was 105 ± 7 nM. With `N/C(=N/OC(=O)/C=C/C=C/c1ccc2c(c1)OCO2)c1ccc2c(c1)OCO2` [VIk], the IC50 on EGFR amounted to 127 ± 10 nM. Turning to `NC(=NOC(=O)/C=C/C=C/c1ccc2c(c1)OCO2)c1ccc(Br)cc1` [VIc, N'-{[(2E,4E)-5-(2H-1,3-Benzodioxol-5-yl)penta-2,4-dienoyl]oxy}-4-bromobenzene-1-carboximidamide], the melting point fell in the range of 159 to 161 °C. Moreover, the IC50 on EGFR turned out to be 112 ± 8 nM.

Broadly, the melting point is the temperature, or range, at which the solid turns liquid. Usually IC50 stands for the concentration that gives 50% inhibition.
